{
  "source": "ChEMBL document CHEMBL1126421",
  "about": "“Total synthesis of myo-inositol-1-phosphate-4,5-pyrophosphate, a novel second messenger analogue, via myo-inositol-1-phosphate-4,5-bisphosphorothioate” (Bioorg Med Chem Lett, 1992)",
  "biological_target": "T1, Inositol polyphosphate-5-phosphatase A (Homo sapiens, UniProt Q14642)",
  "T1 sequence (Q14642 whole entry)": "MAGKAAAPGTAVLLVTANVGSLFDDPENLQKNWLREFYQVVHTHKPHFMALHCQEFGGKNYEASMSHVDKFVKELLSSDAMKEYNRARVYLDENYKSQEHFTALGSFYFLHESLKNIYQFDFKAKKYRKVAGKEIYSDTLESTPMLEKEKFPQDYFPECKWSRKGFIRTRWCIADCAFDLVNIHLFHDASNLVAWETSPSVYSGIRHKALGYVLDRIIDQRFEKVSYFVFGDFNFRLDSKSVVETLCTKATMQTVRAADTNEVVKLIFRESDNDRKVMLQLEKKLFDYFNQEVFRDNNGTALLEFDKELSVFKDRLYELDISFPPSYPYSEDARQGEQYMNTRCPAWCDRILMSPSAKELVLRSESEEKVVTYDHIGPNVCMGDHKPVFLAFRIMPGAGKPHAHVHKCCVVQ",
  "assay": "The compound was evaluated for inhibition of Inositol-1,4,5-trisphosphate 5-phosphatase",
  "note": "pKi: −log10 of the molar value.",
  "data": [
    {"molecule": "O=P(O)(O)OC1C(O)C(O)C(OP(O)(O)=S)C(OP(O)(O)=S)C1O", "note": "(stereo unspecified)", "values": [
      {"measurement": "pKi", "result": 5.89}
    ]}
  ]
}
